Measured values: the NIST ThermoML archive (doi:10.1021/je060271a)

Details: 303.16 K, Liquid, Vibrating tube method

CCCC(=O)OCC(COC(=O)CCC)(COC(=O)CCC)COC(=O)CCC [pentaerythritol tetrabutyrate]
Details	mass density [kg/m3]
15938 kPa	1052.3
15972 kPa	1052.3
16014 kPa	1052.4
16048 kPa	1052.3
16090 kPa	1052.4
16125 kPa	1052.5
16167 kPa	1052.5
16209 kPa	1052.5
16244 kPa	1052.5
16286 kPa	1052.6
16323 kPa	1052.5
16366 kPa	1052.5
16409 kPa	1052.7
16446 kPa	1052.6
16489 kPa	1052.7
16526 kPa	1052.7
16571 kPa	1052.7
16616 kPa	1052.7
16654 kPa	1052.7
16700 kPa	1052.7
16739 kPa	1052.8
16786 kPa	1052.8
16833 kPa	1052.9
16872 kPa	1053
16906 kPa	1052.9
16947 kPa	1053
16988 kPa	1052.9
17023 kPa	1053
17065 kPa	1053
17100 kPa	1053
17142 kPa	1053
17185 kPa	1052.9
17221 kPa	1053
17265 kPa	1053.2
17301 kPa	1053.1
17346 kPa	1053.2
17383 kPa	1053.1
17428 kPa	1053.2
17464 kPa	1053.2
17508 kPa	1053.2
17552 kPa	1053.1
17588 kPa	1053.3
17632 kPa	1053.3
17669 kPa	1053.4
17713 kPa	1053.5
17758 kPa	1053.5
17796 kPa	1053.4
17840 kPa	1053.4
17887 kPa	1053.5
17924 kPa	1053.4
17970 kPa	1053.5
18009 kPa	1053.6
18056 kPa	1053.6
18094 kPa	1053.5
18141 kPa	1053.6
18187 kPa	1053.6
18226 kPa	1053.6
18275 kPa	1053.6
18315 kPa	1053.9
18363 kPa	1053.8
18405 kPa	1053.7
18448 kPa	1053.9
18497 kPa	1053.9
18546 kPa	1054
18588 kPa	1053.9
18638 kPa	1054
18681 kPa	1054.1
18732 kPa	1054
18784 kPa	1054
18828 kPa	1054.1
18881 kPa	1054.2
18917 kPa	1054
18955 kPa	1054
18996 kPa	1054.2
19030 kPa	1054.2
19063 kPa	1054.2
19103 kPa	1054.2
19136 kPa	1054.2
19176 kPa	1054.3
19209 kPa	1054.3
19248 kPa	1054.3
19288 kPa	1054.4
19321 kPa	1054.3
19361 kPa	1054.4
19395 kPa	1054.3
19436 kPa	1054.4
19477 kPa	1054.5
19512 kPa	1054.4
19553 kPa	1054.5
19587 kPa	1054.5
19629 kPa	1054.5
19665 kPa	1054.4
19707 kPa	1054.6
19741 kPa	1054.6
19783 kPa	1054.5
19825 kPa	1054.7
19861 kPa	1054.7
19904 kPa	1054.6
19940 kPa	1054.8
19985 kPa	1054.6
20021 kPa	1054.8
20064 kPa	1054.8
20101 kPa	1054.9
20144 kPa	1054.8
20189 kPa	1054.9
20226 kPa	1054.9
20270 kPa	1054.9
20308 kPa	1054.8
20479 kPa	1055
20525 kPa	1054.9
20562 kPa	1055.1
20609 kPa	1055.1
20648 kPa	1055.1
20695 kPa	1055.1
20735 kPa	1055.3
20783 kPa	1055.2
20823 kPa	1055.3
20871 kPa	1055.3
20911 kPa	1055.3
20958 kPa	1055.2
20997 kPa	1055.3
21046 kPa	1055.4
21087 kPa	1055.4
21317 kPa	1055.5
21366 kPa	1055.5
21458 kPa	1055.5
21510 kPa	1055.6
21552 kPa	1055.6
21603 kPa	1055.7
21646 kPa	1055.7
21698 kPa	1055.6
21749 kPa	1055.8
21792 kPa	1055.7
21845 kPa	1055.9
21889 kPa	1055.9
21942 kPa	1055.8
21986 kPa	1055.9
22040 kPa	1055.9
22093 kPa	1056
22138 kPa	1056
22194 kPa	1056
22240 kPa	1056.1
22297 kPa	1056.1
22344 kPa	1056.2
22399 kPa	1056.2
22444 kPa	1056.1
22501 kPa	1056.1
22549 kPa	1056.2
22606 kPa	1056.2
22664 kPa	1056.3
22714 kPa	1056.3
22776 kPa	1056.4
22829 kPa	1056.3
22885 kPa	1056.5
22917 kPa	1056.4
22959 kPa	1056.5
22993 kPa	1056.4
23026 kPa	1056.4
23065 kPa	1056.6
23104 kPa	1056.5
23137 kPa	1056.6
23177 kPa	1056.6
23211 kPa	1056.7
23251 kPa	1056.7
23285 kPa	1056.7
23325 kPa	1056.7
23359 kPa	1056.7
23399 kPa	1056.7
23440 kPa	1056.7
23475 kPa	1056.8
23516 kPa	1056.9
23551 kPa	1056.9
23593 kPa	1056.9
23628 kPa	1056.8
23670 kPa	1056.9
23705 kPa	1056.8
23747 kPa	1056.8
23782 kPa	1057
23825 kPa	1057
23860 kPa	1057
23902 kPa	1057.1
23946 kPa	1057.1
23981 kPa	1057
24023 kPa	1057.1
24066 kPa	1057
24101 kPa	1057.2
24145 kPa	1057.1
24182 kPa	1057.3
24225 kPa	1057.1
24269 kPa	1057.2
24306 kPa	1057.2
24350 kPa	1057.3
24387 kPa	1057.4
24432 kPa	1057.3
24470 kPa	1057.3
24515 kPa	1057.5
24560 kPa	1057.4
24597 kPa	1057.4
24642 kPa	1057.4
24680 kPa	1057.5
24726 kPa	1057.6
24772 kPa	1057.6
24810 kPa	1057.5
24858 kPa	1057.5
24897 kPa	1057.6
24944 kPa	1057.7
24991 kPa	1057.6
25031 kPa	1057.5
25070 kPa	1057.7
25117 kPa	1057.7
25165 kPa	1057.7
25204 kPa	1057.8
25252 kPa	1057.8
25292 kPa	1057.9
25340 kPa	1057.9
25389 kPa	1058
25431 kPa	1057.9
25481 kPa	1057.9
25523 kPa	1058
25574 kPa	1058.1
25618 kPa	1058.1
25669 kPa	1058
25712 kPa	1058.1
25765 kPa	1058.1
25816 kPa	1058.1
25851 kPa	1058.2
25889 kPa	1058.2
25926 kPa	1058.1
25957 kPa	1058
25995 kPa	1058.2
26027 kPa	1058.1
26066 kPa	1058.3
26106 kPa	1058.3
26139 kPa	1058.4
26171 kPa	1058.3
26210 kPa	1058.3
26243 kPa	1058.4
26282 kPa	1058.4
26320 kPa	1058.4
26352 kPa	1058.5
26392 kPa	1058.5
26430 kPa	1058.3
26463 kPa	1058.4
26504 kPa	1058.6
26538 kPa	1058.6
26574 kPa	1058.6
26615 kPa	1058.5
26648 kPa	1058.6
26688 kPa	1058.6
26728 kPa	1058.6
26761 kPa	1058.6
26802 kPa	1058.6
26836 kPa	1058.7
26876 kPa	1058.8
26918 kPa	1058.7
26952 kPa	1058.7
26994 kPa	1058.8
27028 kPa	1058.8
27070 kPa	1058.9
27110 kPa	1058.8
27145 kPa	1058.8
27188 kPa	1058.8
27223 kPa	1059.1
27266 kPa	1058.9
27301 kPa	1059
27343 kPa	1058.9
27385 kPa	1059.2
27420 kPa	1059
27464 kPa	1059
27499 kPa	1059
27542 kPa	1059.1
27585 kPa	1059.1
27622 kPa	1059.2
27666 kPa	1059.2
27702 kPa	1059.2
27747 kPa	1059.1
27784 kPa	1059.3
27828 kPa	1059.2
27865 kPa	1059.3
27909 kPa	1059.4
27953 kPa	1059.4
27991 kPa	1059.3
28035 kPa	1059.4
28079 kPa	1059.4
28117 kPa	1059.3
28162 kPa	1059.4
28200 kPa	1059.5
28244 kPa	1059.4
28290 kPa	1059.5
28328 kPa	1059.5
28374 kPa	1059.6
28419 kPa	1059.7
